Data as given in patent US20190216761A1, “COMPOSITIONS COMPRISING 15-HEPE AND METHODS OF USING THE SAME” (Afimmune Limited, priority 2015, published 2019).
Substitutions are numbered along the chain they refer to.

Legend:
Test in all cases: PPAR antagonist reporter assay (reference agonist at EC80)
Format in all cases: cell-based
[1] = molecular target: T1, hPPARα (Homo sapiens, UniProt Q07869); settings: for inhibition of human PPARs (in words), hPPARα: at higher test concentrations
T1 construct: expressed in transfected cells
T1 sequence (Q07869 239-466 limits assumed): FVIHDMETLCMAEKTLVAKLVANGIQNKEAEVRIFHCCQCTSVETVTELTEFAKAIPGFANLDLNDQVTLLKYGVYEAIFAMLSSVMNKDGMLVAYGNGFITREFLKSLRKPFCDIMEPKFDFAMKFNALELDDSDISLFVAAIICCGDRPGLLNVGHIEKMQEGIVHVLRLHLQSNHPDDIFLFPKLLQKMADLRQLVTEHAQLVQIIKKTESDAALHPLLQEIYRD
Protocol: (§1) This study utilized proprietary reporter cells expressing a hybrid receptor comprising the N-terminal Gal4 DNA binding domain fused to the ligand binding domain of the specific human nuclear receptor (hPPARα, hPPARδ, and hPPARγ) and rat nuclear receptor (rPPARα, rPPARδ, and rPPARγ). The reporter vectors used in this Example comprise the firefly luciferase gene functionally linked to the Gal4 upstream activation sequence.
(§2) Nuclear Receptor assay was performed by suspending Reporter Cells in CRM containing 10% charcoal stripped FBS. 2×-EC80 concentrations of the appropriate reference agonist were then added to the Reporter Cell suspension, and 100 μL of the mixture dispensed into wells of a white 96-well plate. Test compounds were diluted using compound screening medium (CSM) containing 10% charcoal stripped FBS to generate “2×-concentration” treatment media. Immediately after this dilution step, 100 μL of each diluted 2×-concentration treatment medium was dispensed (in triplicate) into the Reporter Cell-containing assay wells.
(§3) After incubation at 37° C. for 24 hours, the treatment media was discarded. Each well was rinsed once with LCM Buffer; LCM substrate was then added. After incubation for 30 minutes at 37° C., fluorescence was measured to determine the relative number of live cells per assay well. LCM substrate was then discarded and 100 μL of Luciferase Detection Reagent substrate was added to each well. RLUs were quantified from each well to determine nuclear receptor activities.

[2] = molecular target: T2, hPPARγ (Homo sapiens, UniProt P37231); settings: for inhibition of human PPARs (in words), hPPARγ: at higher test concentrations
T2 construct: expressed in transfected cells
T2 sequence (P37231 238-503 limits assumed): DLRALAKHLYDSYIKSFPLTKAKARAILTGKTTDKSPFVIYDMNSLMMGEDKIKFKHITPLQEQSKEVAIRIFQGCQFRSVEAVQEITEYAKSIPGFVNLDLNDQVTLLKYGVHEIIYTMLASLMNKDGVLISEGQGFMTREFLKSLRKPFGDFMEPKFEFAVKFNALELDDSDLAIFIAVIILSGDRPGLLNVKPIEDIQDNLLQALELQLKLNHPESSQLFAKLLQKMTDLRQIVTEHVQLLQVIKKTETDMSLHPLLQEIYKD
Protocol: as §1, §2, §3

[3] = molecular target: T3, rPPARα (Rattus norvegicus, UniProt P37230); settings: for inhibition of rat PPARs (in words), rPPARα: at higher test concentrations
T3 construct: expressed in transfected cells
T3 sequence (P37230 239-466 limits assumed): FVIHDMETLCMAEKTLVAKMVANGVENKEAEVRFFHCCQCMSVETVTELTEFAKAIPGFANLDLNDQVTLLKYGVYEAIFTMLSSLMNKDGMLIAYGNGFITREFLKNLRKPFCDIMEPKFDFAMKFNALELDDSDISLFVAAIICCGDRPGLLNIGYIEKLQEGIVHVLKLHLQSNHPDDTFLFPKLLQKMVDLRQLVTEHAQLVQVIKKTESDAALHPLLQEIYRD
Protocol: as §1, §2, §3

[4] = molecular target: T4, rPPARγ (Rattus norvegicus, UniProt O88275); settings: for inhibition of rat PPARs (in words), rPPARγ: at higher test concentrations
T4 construct: expressed in transfected cells
T4 sequence (O88275 238-503 limits assumed): T2 sequence (P37231 238-503 limits assumed) with S93N, V98I, L226V, Q245H
Protocol: as §1, §2, §3

Compound | % Inhibition of agonist-stimulated receptor activity vs. 0.10% DMSO, hPPAR-α ([1]; 137 nM) | % Inhibition of agonist-stimulated receptor activity vs. 0.10% DMSO, hPPAR-α ([1]; 412 nM) | % Inhibition of agonist-stimulated receptor activity vs. 0.10% DMSO, hPPAR-α ([1]; 1,235 nM) | % Inhibition of agonist-stimulated receptor activity vs. 0.10% DMSO, hPPAR-α ([1]; 3,704 nM) | % Inhibition of agonist-stimulated receptor activity vs. 0.10% DMSO, hPPAR-α ([1]; 11,111 nM) | % Inhibition of agonist-stimulated receptor activity vs. 0.10% DMSO, hPPAR-α ([1]; 33,333 nM) | % Inhibition of agonist-stimulated receptor activity vs. 0.10% DMSO, hPPAR-α ([1]; 100,000 nM) | % Inhibition of agonist-stimulated receptor activity vs. 0.10% DMSO, hPPAR-α ([1]; 300,000 nM) | inhibition of human PPARs (in words), hPPARα [1] | % Inhibition of agonist-stimulated receptor activity vs. 0.10% DMSO, hPPAR-γ ([2]; 137 nM) | % Inhibition of agonist-stimulated receptor activity vs. 0.10% DMSO, hPPAR-γ ([2]; 412 nM) | % Inhibition of agonist-stimulated receptor activity vs. 0.10% DMSO, hPPAR-γ ([2]; 1,235 nM) | % Inhibition of agonist-stimulated receptor activity vs. 0.10% DMSO, hPPAR-γ ([2]; 3,704 nM) | % Inhibition of agonist-stimulated receptor activity vs. 0.10% DMSO, hPPAR-γ ([2]; 11,111 nM) | % Inhibition of agonist-stimulated receptor activity vs. 0.10% DMSO, hPPAR-γ ([2]; 33,333 nM) | % Inhibition of agonist-stimulated receptor activity vs. 0.10% DMSO, hPPAR-γ ([2]; 100,000 nM) | % Inhibition of agonist-stimulated receptor activity vs. 0.10% DMSO, hPPAR-γ ([2]; 300,000 nM) | inhibition of human PPARs (in words), hPPARγ [2] | % Inhibition of agonist-stimulated receptor activity vs. 0.10% DMSO, rPPAR-α ([3]; 137 nM) | % Inhibition of agonist-stimulated receptor activity vs. 0.10% DMSO, rPPAR-α ([3]; 412 nM) | also measured
CC/C=C\C[C@H](O)/C=C/C=C\C/C=C\C/C=C\CCCC(=O)OCC [15-HEPE-EE, 15-HEPE ethyl ester] | 49% | 21% | 13% | 14% | 14% | 26% | 40% | 83% | apparent inhibition | 17% | 0.87% | −1.4% | −4.6% | −0.42% | 5.2% | 44% | 100% | apparent inhibition | 42% | 26% | % Inhibition of agonist-stimulated receptor activity vs. 0.10% DMSO, rPPAR-α ([3]; 1,235 nM): 25%; % Inhibition of agonist-stimulated receptor activity vs. 0.10% DMSO, rPPAR-α ([3]; 3,704 nM): 21%; % Inhibition of agonist-stimulated receptor activity vs. 0.10% DMSO, rPPAR-α ([3]; 11,111 nM): 21%; % Inhibition of agonist-stimulated receptor activity vs. 0.10% DMSO, rPPAR-α ([3]; 33,333 nM): 38%; % Inhibition of agonist-stimulated receptor activity vs. 0.10% DMSO, rPPAR-α ([3]; 100,000 nM): 79%; % Inhibition of agonist-stimulated receptor activity vs. 0.10% DMSO, rPPAR-α ([3]; 300,000 nM): 100%; inhibition of rat PPARs (in words), rPPARα [3]: apparent inhibition; % Inhibition of agonist-stimulated receptor activity vs. 0.10% DMSO, rPPAR-γ ([4]; 137 nM): 10%; % Inhibition of agonist-stimulated receptor activity vs. 0.10% DMSO, rPPAR-γ ([4]; 412 nM): −13%; % Inhibition of agonist-stimulated receptor activity vs. 0.10% DMSO, rPPAR-γ ([4]; 1,235 nM): −7.6%; % Inhibition of agonist-stimulated receptor activity vs. 0.10% DMSO, rPPAR-γ ([4]; 3,704 nM): −6.7%; % Inhibition of agonist-stimulated receptor activity vs. 0.10% DMSO, rPPAR-γ ([4]; 11,111 nM): −4.1%; % Inhibition of agonist-stimulated receptor activity vs. 0.10% DMSO, rPPAR-γ ([4]; 33,333 nM): 8.4%; % Inhibition of agonist-stimulated receptor activity vs. 0.10% DMSO, rPPAR-γ ([4]; 100,000 nM): 26%; % Inhibition of agonist-stimulated receptor activity vs. 0.10% DMSO, rPPAR-γ ([4]; 300,000 nM): 93%; inhibition of rat PPARs (in words), rPPARγ [4]: apparent inhibition
CC/C=C\C/C=C\C/C=C\C/C=C\C/C=C\CCCC(=O)OCC [EPA-EE, EPA ethyl ester, reference compound] | 35% | 20% | 18% | 17% | 11% | 10% | 7.1% | 2.8% | does not exhibit similar inhibitory activity | 13% | 3.8% | −8.0% | −11% | −8.4% | 2.9% | −0.59% | 30% | does not exhibit similar inhibitory activity | 51% | 20% | % Inhibition of agonist-stimulated receptor activity vs. 0.10% DMSO, rPPAR-α ([3]; 1,235 nM): 5.7%; % Inhibition of agonist-stimulated receptor activity vs. 0.10% DMSO, rPPAR-α ([3]; 3,704 nM): 4.2%; % Inhibition of agonist-stimulated receptor activity vs. 0.10% DMSO, rPPAR-α ([3]; 11,111 nM): −4.7%; % Inhibition of agonist-stimulated receptor activity vs. 0.10% DMSO, rPPAR-α ([3]; 33,333 nM): 1.4%; % Inhibition of agonist-stimulated receptor activity vs. 0.10% DMSO, rPPAR-α ([3]; 100,000 nM): 13%; % Inhibition of agonist-stimulated receptor activity vs. 0.10% DMSO, rPPAR-α ([3]; 300,000 nM): 36%; inhibition of rat PPARs (in words), rPPARα [3]: does not exhibit similar inhibitory activity; % Inhibition of agonist-stimulated receptor activity vs. 0.10% DMSO, rPPAR-γ ([4]; 137 nM): 9.6%; % Inhibition of agonist-stimulated receptor activity vs. 0.10% DMSO, rPPAR-γ ([4]; 412 nM): −7.4%; % Inhibition of agonist-stimulated receptor activity vs. 0.10% DMSO, rPPAR-γ ([4]; 1,235 nM): −7.3%; % Inhibition of agonist-stimulated receptor activity vs. 0.10% DMSO, rPPAR-γ ([4]; 3,704 nM): −0.55%; % Inhibition of agonist-stimulated receptor activity vs. 0.10% DMSO, rPPAR-γ ([4]; 11,111 nM): 2.8%; % Inhibition of agonist-stimulated receptor activity vs. 0.10% DMSO, rPPAR-γ ([4]; 33,333 nM): 5.0%; % Inhibition of agonist-stimulated receptor activity vs. 0.10% DMSO, rPPAR-γ ([4]; 100,000 nM): 6.2%; % Inhibition of agonist-stimulated receptor activity vs. 0.10% DMSO, rPPAR-γ ([4]; 300,000 nM): 7.0%; inhibition of rat PPARs (in words), rPPARγ [4]: does not exhibit similar inhibitory activity
